“Also recorded” adds a separate entry of the source. Like-named read-outs stand apart in the source and are kept apart here.
Key:
[1] = target: human recombinant FGFR2 catalytic domain protein (amino acid 400-821) (Homo sapiens (Human), UniProt P21802); test: FGFR2 activity inhibition test (HTRF kinase assay); type: biochemical; conditions: 50 μM ATP
[2] = target: human recombinant FGFR4 catalytic domain protein (amino acid 460-802) (Homo sapiens (Human), UniProt P22455); test: FGFR4 activity inhibition test (HTRF kinase assay); type: biochemical; conditions: 90 μM ATP
human recombinant FGFR4 catalytic domain protein (amino acid 460-802), sequence (P22455 460-802): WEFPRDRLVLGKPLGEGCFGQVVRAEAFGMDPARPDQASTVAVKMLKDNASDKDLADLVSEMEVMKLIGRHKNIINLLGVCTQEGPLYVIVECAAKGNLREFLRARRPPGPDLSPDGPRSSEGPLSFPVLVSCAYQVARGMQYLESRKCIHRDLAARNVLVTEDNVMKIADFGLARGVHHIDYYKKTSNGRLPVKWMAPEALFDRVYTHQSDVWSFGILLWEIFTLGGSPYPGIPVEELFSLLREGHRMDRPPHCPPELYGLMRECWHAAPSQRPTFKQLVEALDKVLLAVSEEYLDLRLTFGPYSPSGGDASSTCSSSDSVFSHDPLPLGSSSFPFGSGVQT

[3] = system: SNU-16 gastric cancer cell line; test: Inhibition on the proliferation of SNU-16 cells (luminescent cell viability assay); type: cell-based; conditions: Homo sapiens, 72 hours
Experimental: (§1) CellTilter-Glo reagent (Promega, Cat. No. G7572) consists of CTG lyophilized powder and CTG buffer. Before use, the lyophilized powder needs to be dissolved in the buffer.
(§2) After overnight incubation, 3 μL of DMEM diluted compound was added to each well, which was then gently centrifuged to mix well, and then the 384-well plate was placed in a 37° C., 5% CO2 incubator to continue the culture, and after 72 hours, the plate was taken out and allowed to stand at room temperature for 30 minutes, next added 15 μL of CTG reagent per well, which was warmed up to room temperature, the plate was shaken gently on a shaker for 3 minutes to ensure sufficient cell lysis, allowed to stand 10 minutes to stabilize the luminescence signal, and then read the luminescence signal with EnVision (Perkin Elmer).
(§3) Where Y is the percentage of inhibition, Bottom is the bottom platform value of the S-curve, Top is the top platform value of the S-curve, X is the logarithm of the concentration of the compound to be tested, and slope factor is the slope coefficient of the curve.
The effect of the compounds of the present invention on cell proliferation of SNU-16 gastric cancer cell line was assessed using a luminescent cell viability assay (Table 2).
(§4) For the experimental method, please refer to the method for determining the inhibition on the proliferation of Hep3B cells.

[4] = target: human recombinant FGFR1 catalytic domain protein (amino acid 308-731) (Homo sapiens (Human), UniProt P11362); test: FGFR1 activity inhibition test (HTRF kinase assay); type: biochemical; conditions: 40 μM ATP
human recombinant FGFR1 catalytic domain protein (amino acid 308-731), sequence (P11362 other isoform, or with tags, fused parts or gaps): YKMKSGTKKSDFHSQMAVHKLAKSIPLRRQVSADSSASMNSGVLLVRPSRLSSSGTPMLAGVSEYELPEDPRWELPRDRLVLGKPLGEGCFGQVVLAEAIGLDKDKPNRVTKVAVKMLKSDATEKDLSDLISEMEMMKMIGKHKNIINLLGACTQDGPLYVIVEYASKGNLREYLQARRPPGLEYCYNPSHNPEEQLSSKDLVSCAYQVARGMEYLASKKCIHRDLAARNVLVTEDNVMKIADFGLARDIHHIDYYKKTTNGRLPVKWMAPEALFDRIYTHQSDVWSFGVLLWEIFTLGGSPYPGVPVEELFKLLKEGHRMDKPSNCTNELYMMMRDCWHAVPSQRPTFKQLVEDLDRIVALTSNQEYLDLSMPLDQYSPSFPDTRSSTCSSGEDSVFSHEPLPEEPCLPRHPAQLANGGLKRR

Hep3B hepatoma cell line = test: Inhibition on the proliferation of Hep3B cells (luminescent cell viability assay); type: cell-based; conditions: Homo sapiens, 72 hours
Experimental: The effect of the compounds of the present invention on cell proliferation of Hep3B hepatoma cell line was assessed using a luminescent cell viability assay (Table 2).
as §1, §2, §3

[5] = system: RT4 bladder cancer cell line; test: Inhibition on the proliferation of RT4 cells (luminescent cell viability assay); type: cell-based; conditions: Homo sapiens, RT-4, 72 hours
Experimental: as §1, §2, §3
The effect of the compounds of the present invention on cell proliferation of the RT4 bladder cancer cell line was assessed using a luminescent cell viability assay (Table 2).
as §4

[6] = target: human recombinant FGFR3 catalytic domain protein (amino acid 399-806) (Homo sapiens (Human), UniProt P22607); test: FGFR3 activity inhibition test (HTRF kinase assay); type: biochemical; conditions: 90 μM ATP
human recombinant FGFR3 catalytic domain protein (amino acid 399-806), sequence (P22607 399-806): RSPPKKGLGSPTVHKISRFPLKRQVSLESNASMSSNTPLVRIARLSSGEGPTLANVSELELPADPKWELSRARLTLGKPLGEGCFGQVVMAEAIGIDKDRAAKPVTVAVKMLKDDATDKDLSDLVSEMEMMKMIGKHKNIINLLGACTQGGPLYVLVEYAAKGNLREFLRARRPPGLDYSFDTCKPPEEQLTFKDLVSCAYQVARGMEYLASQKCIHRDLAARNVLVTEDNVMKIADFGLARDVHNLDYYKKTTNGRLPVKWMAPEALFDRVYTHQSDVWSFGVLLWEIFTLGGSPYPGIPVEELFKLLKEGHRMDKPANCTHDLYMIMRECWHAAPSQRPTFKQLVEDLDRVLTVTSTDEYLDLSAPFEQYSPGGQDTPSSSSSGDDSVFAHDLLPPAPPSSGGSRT

[7] = system: FGFR2-overexpressed SNU-16 gastric cancer cell line derived xenograft tumors; type: in vivo; conditions: for TGI % (tumor growth inhibition) / mean tumor size: day 25
Experimental: The cells were harvested in 90% confluence and no less than 90% viability, and then counted. […] Mice were inoculated subcutaneously into the right flank with 200 uL of 8×10^6 SNU-16 cells resuspended in 50% Matrigel (purchased from Corning). […] Dosing was initiated on day 0 and effects on tumor growth were evaluated by measuring the percentage of tumor growth inhibition (TGI) at the end of the study. Tolerability was assessed by body weight loss, lethality, and clinical signs of adverse treatment-related side effects. Tumor volume and body weight were measured twice per week during the administration period. The percentage of TGI was determined on day 25 after treatment. The difference between the mean value of tumor volume in the treatment group and that in the vehicle group was analyzed for significance using one-way ANOVA (followed by Dennett's test) at each time point and a P<0.05 was considered to be statistically significant.

human recombinant FGFR2 catalytic domain protein (amino acid 400-821), sequence (P21802 400-821): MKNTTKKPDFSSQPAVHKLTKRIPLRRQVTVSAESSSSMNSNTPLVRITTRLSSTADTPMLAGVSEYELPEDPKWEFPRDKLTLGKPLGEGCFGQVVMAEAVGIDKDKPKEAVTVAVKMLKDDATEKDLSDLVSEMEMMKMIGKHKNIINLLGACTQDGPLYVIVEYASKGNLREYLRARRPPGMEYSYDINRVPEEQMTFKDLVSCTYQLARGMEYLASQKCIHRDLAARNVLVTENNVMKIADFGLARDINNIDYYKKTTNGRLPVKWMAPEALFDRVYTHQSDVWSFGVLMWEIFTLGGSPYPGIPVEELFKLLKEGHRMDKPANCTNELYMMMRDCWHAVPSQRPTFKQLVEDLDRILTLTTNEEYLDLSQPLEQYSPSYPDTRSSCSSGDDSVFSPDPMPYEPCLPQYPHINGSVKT

C=CC(=O)N1CC[C@H](n2nc(C#Cc3cc(OC)cc(OC)c3)c(C(N)=O)c2NC)C1 [Compound 21, (S)-1-(1-acryloylpyrrolidin-3-yl)-3-((3,5-dimethoxyphenyl)ethynyl)-5-(methylamino)-1H-pyrazole-4-carboxamide]
IC50 [1]: < 10 nM | IC50 [2]: < 10 nM | IC50 [3]: < 10 nM | IC50 [4]: < 10 nM | IC50 (Hep3B hepatoma cell line): < 10 nM | IC50 [5]: < 10 nM | IC50 [6]: < 10 nM | TGI % (tumor growth inhibition) ([7]; 0.3 mg/kg oral BID for 25 days): 91.0% | mean tumor size ([7]; 0.3 mg/kg oral BID for 25 days): 240 mm^3 | TGI % (tumor growth inhibition) ([7]; 1 mg/kg oral BID for 25 days): 88.3% | mean tumor size ([7]; 1 mg/kg oral BID for 25 days): 261 mm^3 | TGI % (tumor growth inhibition) ([7]; 3 mg/kg oral BID for 25 days): 95.9% | mean tumor size ([7]; 3 mg/kg oral BID for 25 days): 200 mm^3 | locomotor activities ([7]; 10 mg/kg BID): without significant decrease of locomotor activities | mean body weight loss ([7]; 10 mg/kg BID): 11% | TGI % (tumor growth inhibition) ([7]; 10 mg/kg oral BID for 25 days): 108% | mean tumor size ([7]; 10 mg/kg oral BID for 25 days): 103 mm^3 | anti-tumor activity (overall) ([7]; 0.3, 1, 3 and 10 mg/kg oral BID): dose-dependently reduced tumor size; also recorded: marked anti-tumor activities | body weight loss ([7]; 3, 1 and 0.3 mg/kg BID, during the study): no body weight loss | tolerability ([7]; 3, 1 and 0.3 mg/kg BID, tumor-bearing animals): well-tolerated | tolerability (overall summary) ([7]; tumor-bearing animals, summary of study): well-tolerated
